# Source: patent US20090209605A1, “NEMATICIDAL COMPOSITIONS” (Devgen N.V., priority 2004, published 2009)
# How the values were obtained:
# Assay type in all cases: in vivo
# [1] = system: Meloidogyne incognita; assay: Root infestation on agar plate: root knot count on potato microplant roots; details: 60 μM in agar, galls counted 5 weeks after inoculation, four replicates
# Method: 9 cm petri dishes were filled with a 15 ml agar. One stem cutting of a potato microplant (Solanum tuberosum cv. Desirée) was placed on top of the agar layer. After 2 to 3 weeks of incubation at 20° C., the root system was sufficiently developed to be inoculated.
# The test compounds (see Table 1) were added 2 days before inoculation by way of spreading a 2 ml DMSO-solution with the compound over the agar and allowing the compound to diffuse in the agar during two days at constant temperature of 20° C. During incubation, the plates are protected from light in a dark incubator. The resulting concentration of each compound in each agar plate was 60 μM.
# After incubation, approximately 400 axenic juveniles of Meloidogyne incognita species were added to the plate.
# The plates were incubated in the dark at a constant temperature of 20° C. and 5 weeks after inoculation the number of galls formed on the roots were determined by counting. Also any toxic effect of the test compounds on the roots was recorded. 8 weeks after inoculation the plates were stored at low temperature.
# Each compound was tested in four replicates. Positive controls were treated with different concentrations of Aldicarb, a known nematicide. Negative controls included 5 replicates of double negative controls (no compound, no nematode), 5 replicates of single negative controls (no compound, with nematode) and 5 replicates of DMSO controls (DMSO solution, with nematode).
# [2] = system: Meloidogyne incognita nematodes; assay: Pot Assay 1: Meloidogyne infection of potato, egg masses/galls on roots; details: for number of egg masses (galls) on roots, Replicate 1 / number of egg masses (galls) on roots, Replicate 2 / number of egg masses (galls) on roots, Replicate 3: potato in pot, week 8 after inoculation
# Method: 500 ml clay pots were filled with 400 ml of silver sand. One tuber of potato ( Solanum tuberosum cv. Bintje) was planted in the sand. After 2 to 3 weeks incubation, the potato plant was sufficiently developed to be inoculated.
# Plants were grown under the usual standard greenhouse conditions at 14° C.-18° C., with 16 hours light and 8 hours dark and 80-90% relative humidity. The pots were watered using individual drippers and fertilizers were added under the form of macro- and micro nutrients according to plant growth requirements. When needed, the plants were sprayed with fungicides and insecticides.
# The compounds as described herein were added one day before inoculation. The compounds were dissolved in a 20 ml DMSO-solution and spread over the sand surface. The final concentration is calculated under the assumption that the compound is diffused entirely in the pot. This process occurred during two days at the normal greenhouse conditions described above.
# After compound incubation, approximately 1500 juveniles of Meloidogyne incognita nematodes were added to the pots.
# The pots were incubated at the described greenhouse conditions until nematode development was completed. At week 8 after inoculation the number of galls formed on the roots was counted after washing off the sandy substrate. Also the effect of the compound on the plant development was recorded.
# Every compound was tested in three replicates. Positive control plants were treated with different concentrations of aldicarb, a known nematicide. Negative controls involved 12 replicates of double negative controls (no compound, no nematode), 12 replicates of single negative controls (no compound, no DMSO, with nematode), 24 replicates of DMSO controls (DMSO solution, with nematode).
# As assessment of the root development was taken into account.
# [3] = system: tomato (cv. Rio Grande); assay: Pot Assay 2: root development (vigor of roots) of tomato; details: for ROOT DEV.: visual value 0 to 10 (10 equal to control)
# Method: Phytotoxicity of compounds as described herein when used as a nematicide, was measured as follows. […] At that moment, plant emergence was assessed for the plants treated with any of the compounds as described herein, by counting the number of plants per compound-concentration.
# Vigor of roots was also assessed once the plants are well established so as not to loose plants. To assess vigor of the plants or roots, a visual value ranging from 0 to 10 (0 no vigor, 10 equal to control) was scored per compound-concentration.
# [4] = system: Meloidogyne nematodes; assay: Pot Assay 2: Meloidogyne infection of tomato, % infestation of roots; details: for % INF. (% Infestation): tomato in infested soil
# Method: The soil used in this assay originated from a plot, heavily infested with Meloidogyne nematodes. Part of this soil was sterilized by autoclaving and was used as negative control. Sandy soil, which was not infested with nematodes, was pursued from a commercial source.
# Plastic seedling trays with wells of 60 ml capacity were filled with about 40 ml of soil per well. 5 ml of water per well was used for irrigation.
# Compounds as described herein were tested in 4 different rates and with 12 replicates for each concentration. The compounds as described herein were stored as dry films of 4 different concentrations. The day of the application of the compounds, all the dry films were dissolved in 60 ml water and poured into the 12 replicate wells: 5 ml per well. Every tray of 12 wells was identified with a label, indicating compound and concentration used. The 4 final rates in the soil of the tested compound were approximately 0.05 mg, 0.20 mg, 1 mg and 5 mg. These amounts translate to field application rates respectively as 30, 120, 600 and 3000 g per hectare.
# 3-5 days after application of the tested compound, tomato seeds (cv. Rio Grande) were sown in the wells by hand, at about 2 cm deep. A light cover of vermiculite on the surface was used to avoid dehydration. Plants were irrigated by micro-nebulization 3-4 times per week at a rate of 3 L/m^2, weeded by hand and treated with fertilizers, fungicide and insecticides when needed.
# Their resistance against nematode infection was monitored and the efficacy of compounds described herein as a nematicide was measured. Furthermore the phytotoxicity of the test compounds was evaluated.
# Efficacy of the compounds described herein as nematicide was measured by giving the roots a percentage of infestation measured as follows. Plants were grown to reach good development of the roots, which corresponds to plants grown to about 10 cm high at about one month after emergence. After removal of the soil from the roots by rinsing with water, the roots were visually inspected and root galls were counted on 4 plants of the set of 12 replicate plants.
# Positive control plants were treated with a 10 micromolar concentration of oxamyl (Vydate, 10% SL; the rate of 10 micromolar corresponds to a commercial rate of 20 l/ha), a known nematicide. Negative controls involved double negative controls (no compound, sterile soil), and single negative controls (no compound, with nematode infested soil).
# [5] = highest concentration of the reference compound
# [6] = reference, 10 micromolar (Vydate, 10% SL)
Structure (SMILES),"Root knot count, average of the replicate counts [1]",ROOT DEV. ([3]; RATE 1 mg),% INF. (% Infestation) ([4]; RATE 1 mg) [%],ROOT DEV. ([3]; RATE 0.05 mg),ROOT DEV. ([3]; RATE 0.2 mg),% INF. (% Infestation) ([4]; RATE 0.05 mg) [%],% INF. (% Infestation) ([4]; RATE 0.2 mg) [%],further results
CC(C)=CC1C(C(=O)OCN2C(=O)C3=C(CCCC3)C2=O)C1(C)C (mixture of isomers) [LIX],19,–,–,–,–,–,–,–
CC(C)=CC1C(C(=O)OCc2coc(Cc3ccccc3)c2)C1(C)C (mixture of isomers) [LVII],8.5,–,–,–,–,–,–,–
CC1COC(Cn2cncn2)(c2ccc(Oc3ccc(Cl)cc3)cc2Cl)O1 (mixture of isomers) [XLIX],19.25,7.9,0.0,–,–,–,–,"number of egg masses (galls) on roots, Replicate 1 ([2]; 10 μM): 70; number of egg masses (galls) on roots, Replicate 2 ([2]; 10 μM): 60; number of egg masses (galls) on roots, Replicate 3 ([2]; 10 μM): 40; number of egg masses (galls) on roots, Replicate 2 ([2]; 50 μM): 60; number of egg masses (galls) on roots, Replicate 3 ([2]; 50 μM): 10"
Cc1c(F)c(F)c(COC(=O)C2C(C=C(Cl)C(F)(F)F)C2(C)C)c(F)c1F (racemic) [LVIII],18.25,–,–,–,–,–,–,"number of egg masses (galls) on roots, Replicate 1 ([2]; 50 μM): 60; number of egg masses (galls) on roots, Replicate 2 ([2]; 50 μM): 100; number of egg masses (galls) on roots, Replicate 3 ([2]; 50 μM): 30"
CNC1=C(c2cccc(C(F)(F)F)c2)C(=O)C(c2ccccc2)O1 (racemic) [XV],18,–,–,–,–,–,–,–
"CNC(=O)O/N=C/C(C)(C)SC [Aldicarb, reference compound]",–,–,–,–,–,–,–,"egg mass development (number of egg masses) [2, 5]: 41; reduction of the egg mass development, fraction of control [2, 5]: about ⅓; effect on the nematode development ([2]; three lowest concentrations of the reference compound): no effect"
CCC(N)P(=O)(O)O (stereo not drawn) [II],6.5,7.3,0.0,6.7,7.3,0.0,0.0,ROOT DEV. ([3]; RATE 5 mg): 7.9; % INF. (% Infestation) ([4]; RATE 5 mg): 0.0%
N#Cc1c(Cl)c(Cl)c(Cl)c(C#N)c1Cl [IV],11.5,–,–,–,–,–,–,–
CCNC(=O)NC(=O)C(C#N)=NOC [LII],15.5,–,–,–,–,–,–,–
Cc1cccc(C)c1N(C(=O)CCl)C1CCOC1=O (stereo not drawn) [LIV],14.5,7.6,3.8,7.5,7.2,5.0,5.0,ROOT DEV. ([3]; RATE 5 mg): 6.6; % INF. (% Infestation) ([4]; RATE 5 mg): 2.5%
O=C(NC(=O)c1c(F)cccc1F)Nc1cc(Cl)c(Oc2ncc(C(F)(F)F)cc2Cl)c(Cl)c1 [LI],17.5,–,–,–,–,–,–,–
COCC(=O)N(c1c(C)cccc1C)N1CCOC1=O [LV],17.75,–,–,–,–,–,–,–
"CNC(=O)O/N=C(\SC)C(=O)N(C)C [Oxamyl, reference compound]",–,7.5,13.8,–,–,–,–,"root development [3, 6]: 7.5; percentage of infestation [4, 6]: 13.8%"
CC(C)N(C(=O)COc1nnc(C(F)(F)F)s1)c1ccc(F)cc1 [XIII],9.5,–,–,–,–,–,–,"number of egg masses (galls) on roots, Replicate 3 ([2]; 10 μM): 40; number of egg masses (galls) on roots, Replicate 1 ([2]; 50 μM): 60; number of egg masses (galls) on roots, Replicate 3 ([2]; 50 μM): 30"
CC(C)(C)N(NC(=O)c1ccc(Cl)cc1)C(=O)c1ccccc1 [XIX],10.75,–,–,–,–,–,–,"number of egg masses (galls) on roots, Replicate 3 ([2]; 10 μM): 80; number of egg masses (galls) on roots, Replicate 1 ([2]; 50 μM): 60; number of egg masses (galls) on roots, Replicate 2 ([2]; 50 μM): 45; number of egg masses (galls) on roots, Replicate 3 ([2]; 50 μM): 20"
Clc1nc(Cl)nc(Nc2ccccc2Cl)n1 [XLII],17.25,8.2,0.0,6.8,6.9,3.8,0.0,ROOT DEV. ([3]; RATE 5 mg): 8.1; % INF. (% Infestation) ([4]; RATE 5 mg): 0.0%
CC(C)(C)C(O)C(Oc1ccc(-c2ccccc2)cc1)n1cncn1 (stereo not drawn) [XLVIII],12.75,7.2,3.8,7.5,7.4,0.0,1.3,ROOT DEV. ([3]; RATE 5 mg): 7.8; % INF. (% Infestation) ([4]; RATE 5 mg): 1.3%
Cc1cc(C)nc(Nc2ccccc2)n1 [XLVI],18.25,–,–,–,–,–,–,–
Nc1nc(N)nc(NC2CC2)n1 [XLV],19.5,–,–,–,–,–,–,–
O=[N+]([O-])N=C1NCCN1Cc1ccc(Cl)nc1 [XXII],12,–,–,–,–,–,–,–
C#CCOC(=O)/C=C(C)/C=C/CC(C)CCCC(C)C (stereo not drawn) [XXVIII],8.5,–,–,7.4,7.8,2.5,1.3,–
CS(=O)(=O)c1cc(C(F)(F)F)ccc1C(=O)c1cnoc1C1CC1 [XXVI],8.75,7.8,0.0,7.4,6.6,1.3,3.8,–
CCOc1ccc([Si](C)(C)CCCc2ccc(F)c(Oc3ccccc3)c2)cc1 [XXXIII],17.5,–,–,–,–,–,–,–
CCCCOCCOCCOCc1cc2c(cc1CCC)OCO2 [XXXII],19.25,7.6,1.3,6.5,7.6,0.0,0.0,ROOT DEV. ([3]; RATE 5 mg): 6.7; % INF. (% Infestation) ([4]; RATE 5 mg): 2.5%
CCc1nn(C)c(C(=O)NCc2ccc(C(C)(C)C)cc2)c1Cl [XXXVIII],16.5,–,–,–,–,–,–,"number of egg masses (galls) on roots, Replicate 1 ([2]; 50 μM): 40; number of egg masses (galls) on roots, Replicate 2 ([2]; 50 μM): 70; number of egg masses (galls) on roots, Replicate 3 ([2]; 50 μM): 1"
COc1ccc(/C(=C/C(=O)N2CCOCC2)c2ccc(Cl)cc2)cc1OC [X],10.5,–,–,6.8,7.9,5.0,1.3,–
